From PMC4912613, “A broad analysis of resistance development in the malaria parasite” (Nature Communications, 2016)
pEC50: −log10 of the molar value.

What was measured:
[1] = test system: MMV008149-resistant clones (Dd2 parent; cytochrome bc1 G131S, Y126C, V284L); test: EC50 assay on MMV008149-resistant lines; format: cell-based; conditions: Plasmodium falciparum, six MMV008149-resistant clones
Experimental: Genomic DNA (gDNA) was isolated from the Dd2 parent and six clones (two clones per resistant selection flask), and samples were prepared for whole-genome sequencing. Samples were sequenced to >60 × coverage using paired end reads and aligned to the 3D7 reference genome and variants were called with HaplotypeCaller (GATK). Comparing the nucleotide variation found in the resistant samples to the Dd2 parent clone, which had been isolated immediately before selections, we identified genomic changes that had presumably occurred during selection. Following this comparison, 19 mutations were identified: 11 SNVs and eight insertion/deletions (INDELs) (Table 2, Supplementary Data 2). INDEL mutations were comprised of intergenic (three), codon INDEL (three), intronic (one) and frame-shift (one) mutations. […] Comparing all six clones, one gene was mutated across all samples: cytochrome bc1. […]
Alternatively, a SYBR Green-based proliferation approach was used for the 72-h assay, as previously described. […] Following incubation, 10 × SYBR Green I (Invitrogen; supplied in 10,000 × concentration) in lysis buffer ([…], 5 mM EDTA, 0.16% Saponin wt per vol and 1.6% Triton X vol per vol) was added to the wells and the plates were incubated overnight at room temperature before plate reading. […]

[2] = test system: PfATP4-Mut3 (PfATP4 F917L, parent 3D7); format: cell-based, Plasmodium falciparum
From the text: To evaluate potential overlapping activity against known antimalarial drug targets, we performed dose-response studies with each compound against our assembled set of drug-resistant lines and their corresponding parents, in an asexual blood stage proliferation assay (Table 1). Comparisons were made to the drug-sensitive strain 3D7 when a parent was unavailable (TM90C2A, W2 and Dd2). As laboratories conducted EC50 assays with different strains and protocols, all comparisons were made between assays from the same laboratory and under the same assay conditions. Compounds displaying >5-fold EC50 shifts relative to the parent or sensitive strain were flagged as having potentially non-novel targets. Average fold shifts per strain ranged from 0.82 to 2.34, with a median of 1.23 indicating there was not common resistance to any one resistant clone. […]
The 48-h assay was carried out in a 96-well format following standard methods using the ^3H-hypoxanthine incorporation assay. […] Radioactivity was measured using a microbeta counter. […] All assays were conducted in triplicate using three independently grown cultures, and EC50 values were determined using the XLfit add-in module for Excel (version 2.3.1) from Grafit (version 5.3.1.3), where parameter h is the assay hill slope, x is the compound concentration and y is the inhibition of growth effect. […]

Row | Structure (SMILES) | pEC50 [1] | EC50 fold-shift, ATP4-Mut3 vs parent [2]
1 | Cc1c(C)n(Cc2ccc(F)cc2)c2ccc(C(=O)NCc3ccco3)cc12 [MMV008149] | 5.00 to 5.78 | 
2 | CCN(CC)S(=O)(=O)c1ccc(-c2csc(Nc3ccc(C)c(C)c3)n2)cc1 [MMV009108] |  | 5.2 ×
